We go through twelve compounds from ChEMBL document CHEMBL1146120 (J Med Chem, 2006).

SMILES strings stand for the structures. Active and inactive are the calls of the source. The calls are words filed in the database; no cut-off is given here. Bounds are passed on as bounds.

Assay [1] concerns Rattus norvegicus. The assay can be described thus: Antihypertrophic activity in Wistar rat at 21.3 mg/kg, ip. In kind it is functional, organism-based. More on the design: dose 21.3 mg/kg.
For assay [2], the species on record is Rattus norvegicus. The assay can be described thus: Activity against NO-mediated vasorelaxation of KCl-induced contractile tone in Wistar rat thoracic aortic ring at 1 uM. The format is functional, Aorta. Also on record: scale not given: the % may be the effect or the level left.
Assay [3] addresses T1, Type-1 angiotensin II receptor (Homo sapiens) (UniProt P30556).
T1 sequence (whole entry): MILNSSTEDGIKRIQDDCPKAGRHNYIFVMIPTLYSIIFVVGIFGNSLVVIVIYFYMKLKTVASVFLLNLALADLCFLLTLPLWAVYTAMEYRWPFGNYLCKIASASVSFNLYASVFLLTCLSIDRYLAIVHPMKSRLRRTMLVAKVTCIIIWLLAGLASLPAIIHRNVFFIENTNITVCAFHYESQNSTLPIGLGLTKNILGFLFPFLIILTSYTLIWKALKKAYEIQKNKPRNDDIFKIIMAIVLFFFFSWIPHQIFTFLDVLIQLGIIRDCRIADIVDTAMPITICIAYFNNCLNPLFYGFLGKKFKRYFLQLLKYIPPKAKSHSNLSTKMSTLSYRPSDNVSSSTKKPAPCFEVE
As to the kind of experiment: Antagonist activity against AT1 receptor after 20 min preincubation. The format is functional.

In assay [4] the target is T1, Type-1 angiotensin II receptor (Homo sapiens). The assay can be described thus: Antagonist activity against AT1 receptor after 60 min preincubation. In kind it is functional.
The species entered for assay [5] is Rattus norvegicus. The assay can be described thus: Activity against NO-mediated vasorelaxation of KCl-induced contractile tone in Wistar rat thoracic aortic ring. The format is functional. The conditions noted are these: Aorta.
The species named for assay [6] is Rattus norvegicus. The assay can be described thus: Inhibition of NO-mediated vasorelaxation of KCl-induced contractile tone in Wistar rat thoracic aortic ring. In kind it is functional. The conditions noted are these: Aorta.
Another assay has as its system Plasma. The assay can be described thus: Inhibition of ADP-mediated platelet aggregation in Wistar rat platelet-rich plasma at 100 uM. The format is functional. Also on record: scale not given: the % may be the effect or the level left.

As for `C[C@H](CS)C(=O)N1CCC[C@H]1C(=O)O`, the result in the assay with Rattus norvegicus [1] was Active.
`CCCCc1nc(Cl)c(COC(=O)c2cccc(C(C)O[N+](=O)[O-])c2)n1Cc1ccc(-c2ccccc2-c2nn[nH]n2)cc1` (stereo not given): in the assay filed under Rattus norvegicus [2], the Activity is <25%. For the same compound, the Kb entry in assay [3] was “inactive”. In assay [4], this compound registered an antagonist dissociation constant (Kb) of 0.012 µM. The Emax in the assay listed under Rattus norvegicus [5] was found to be 47%.
Consider `CCCCc1nc(Cl)c(CO[N+](=O)[O-])n1Cc1ccc(-c2ccccc2-c2nn[nH]n2)cc1` [LOSARTAN NITROOXY ESTER], for which the Activity in the assay listed under Rattus norvegicus [2] is reported as <25%. Besides, the Kb result in assay [3] is “inactive”. Besides, the Kb in assay [4] came to 0.003 µM. The same compound gave an Emax in the assay listed under Rattus norvegicus [5] of 100%. This compound had an IC50 in the assay listed under Rattus norvegicus [6] of 15.1 µM.
With `CCCCc1nc(Cl)c(COC(=O)c2cccc(CO[N+](=O)[O-])n2)n1Cc1ccc(-c2ccccc2-c2nn[nH]n2)cc1`, in the assay listed under Rattus norvegicus [2], the Activity is <25%. The Kb in assay [3] is 0.008 µM. This compound yielded an Emax in the assay filed under Rattus norvegicus [5] of 100%. This compound had an IC50 in the assay listed under Rattus norvegicus [6] of 12.3 µM.
Regarding `CCCCc1nc(Cl)c(COC(=O)c2cccc(CO[N+](=O)[O-])c2)n1Cc1ccc(-c2ccccc2-c2nn[nH]n2)cc1`, the result in the assay filed under Rattus norvegicus [2] (Aorta) and with Rattus norvegicus [1] was Active. This compound registered an antagonist dissociation constant (Kb) in assay [4] of 0.01 µM. In addition, the Emax in the assay filed under Rattus norvegicus [5] came out at 100%. Also, the Activity in the assay with Plasma came out at 41%. The compound also had an IC50 in the assay listed under Rattus norvegicus [6] of 0.275 µM.
As to `CCCCc1nc(Cl)c(C(=O)Oc2cccc(CO[N+](=O)[O-])c2)n1Cc1ccc(-c2ccccc2-c2nn[nH]n2)cc1`, the Activity in the assay listed under Rattus norvegicus [2] was <25%. The Emax in the assay filed under Rattus norvegicus [5] is 100%. The half-maximal inhibitory concentration (IC50) in the assay listed under Rattus norvegicus [6] was 6.03 µM.
On to `CCCCc1nc(Cl)c(CO)n1Cc1ccc(-c2ccccc2-c2nnn[nH]2)cc1` [LOSARTAN], for which the result with Rattus norvegicus [1] was Active. Further, the Activity with Plasma was 50%.
As for `CCCCc1nc(Cl)c(COC(=O)c2ccc(CO[N+](=O)[O-])cc2)n1Cc1ccc(-c2ccccc2-c2nn[nH]n2)cc1`, the result in the assay filed under Rattus norvegicus [2] (Aorta) was Active. In assay [3], the Kb was found to be 0.019 µM. The compound also showed an Emax in the assay listed under Rattus norvegicus [5] of 100%. Further, the IC50 in the assay filed under Rattus norvegicus [6] is 0.0661 µM.
Take `CCCCc1nc(Cl)c(COC(=O)CCCCO[N+](=O)[O-])n1Cc1ccc(-c2ccccc2-c2nn[nH]n2)cc1`: the Kb in assay [3] was determined as 0.016 µM. For the same compound, the maximal response (Emax) in the assay listed under Rattus norvegicus [5] is 100%. The same compound gave a concentration for half-maximal inhibition (IC50) in the assay listed under Rattus norvegicus [6] of 0.851 µM.
With `CCCCc1nc(Cl)c(C(=O)Oc2ccc(CO[N+](=O)[O-])cc2)n1Cc1ccc(-c2ccccc2-c2nn[nH]n2)cc1`, the result in the assay listed under Rattus norvegicus [2] (Aorta) was Active. Besides, in assay [3], the Kb entry was “inactive”. This compound had a maximal response (Emax) in the assay listed under Rattus norvegicus [5] of 100%. Also, in the assay filed under Rattus norvegicus [6], half-maximal inhibition (IC50) was put at 0.275 µM.
With `CCCCc1nc(Cl)c(COC(=O)c2c(C)ccc(CO[N+](=O)[O-])c2C)n1Cc1ccc(-c2ccccc2-c2nn[nH]n2)cc1`, the Activity in the assay listed under Rattus norvegicus [2] is listed as <25%. For the same compound, the Kb entry in assay [3] was “inactive”. This compound also displayed an Emax in the assay filed under Rattus norvegicus [5] of 100%. The compound further gave a half-maximal inhibitory concentration (IC50) in the assay filed under Rattus norvegicus [6] of 32.4 µM.
For the compound `CCCCc1nc(Cl)c(COC(=O)c2ccc(C(C)O[N+](=O)[O-])cc2)n1Cc1ccc(-c2ccccc2-c2nn[nH]n2)cc1` (stereo not given), in the assay listed under Rattus norvegicus [2], the Activity is given as <25%. Moreover, the Kb entry in assay [3] was “inactive”. The same compound came in with an antagonist equilibrium constant (Kb) in assay [4] of 0.008 µM. This compound yielded an Emax in the assay listed under Rattus norvegicus [5] of 100%. For the same compound, it took 7.76 µM to reach half-maximal inhibition in the assay listed under Rattus norvegicus [6] (IC50).
